# Reference: patent US10189853B2, “Conformationally restricted 4-substituted-2,6-dimethylfuro[2,3-d]pyrimidines as anti-tumor agents” (DUQUESNE UNIVERSITY OF THE HOLY SPIRIT, priority 2014, dated 2019)
# Tests used:
# EGFR = EGFR (Homo sapiens (Human), UniProt P00533); test: EGFR kinase inhibition, phosphotyrosine ELISA cytoblot; format: cell-based; conditions: A431 cells
# VEGFR-2 = VEGFR-2 (Homo sapiens (Human), UniProt P35968); test: VEGFR-2 kinase inhibition, phosphotyrosine ELISA cytoblot; format: cell-based; conditions: U251 cells, phosphotyrosine ELISA
# VEGFR-2, sequence (P35968 20-1356): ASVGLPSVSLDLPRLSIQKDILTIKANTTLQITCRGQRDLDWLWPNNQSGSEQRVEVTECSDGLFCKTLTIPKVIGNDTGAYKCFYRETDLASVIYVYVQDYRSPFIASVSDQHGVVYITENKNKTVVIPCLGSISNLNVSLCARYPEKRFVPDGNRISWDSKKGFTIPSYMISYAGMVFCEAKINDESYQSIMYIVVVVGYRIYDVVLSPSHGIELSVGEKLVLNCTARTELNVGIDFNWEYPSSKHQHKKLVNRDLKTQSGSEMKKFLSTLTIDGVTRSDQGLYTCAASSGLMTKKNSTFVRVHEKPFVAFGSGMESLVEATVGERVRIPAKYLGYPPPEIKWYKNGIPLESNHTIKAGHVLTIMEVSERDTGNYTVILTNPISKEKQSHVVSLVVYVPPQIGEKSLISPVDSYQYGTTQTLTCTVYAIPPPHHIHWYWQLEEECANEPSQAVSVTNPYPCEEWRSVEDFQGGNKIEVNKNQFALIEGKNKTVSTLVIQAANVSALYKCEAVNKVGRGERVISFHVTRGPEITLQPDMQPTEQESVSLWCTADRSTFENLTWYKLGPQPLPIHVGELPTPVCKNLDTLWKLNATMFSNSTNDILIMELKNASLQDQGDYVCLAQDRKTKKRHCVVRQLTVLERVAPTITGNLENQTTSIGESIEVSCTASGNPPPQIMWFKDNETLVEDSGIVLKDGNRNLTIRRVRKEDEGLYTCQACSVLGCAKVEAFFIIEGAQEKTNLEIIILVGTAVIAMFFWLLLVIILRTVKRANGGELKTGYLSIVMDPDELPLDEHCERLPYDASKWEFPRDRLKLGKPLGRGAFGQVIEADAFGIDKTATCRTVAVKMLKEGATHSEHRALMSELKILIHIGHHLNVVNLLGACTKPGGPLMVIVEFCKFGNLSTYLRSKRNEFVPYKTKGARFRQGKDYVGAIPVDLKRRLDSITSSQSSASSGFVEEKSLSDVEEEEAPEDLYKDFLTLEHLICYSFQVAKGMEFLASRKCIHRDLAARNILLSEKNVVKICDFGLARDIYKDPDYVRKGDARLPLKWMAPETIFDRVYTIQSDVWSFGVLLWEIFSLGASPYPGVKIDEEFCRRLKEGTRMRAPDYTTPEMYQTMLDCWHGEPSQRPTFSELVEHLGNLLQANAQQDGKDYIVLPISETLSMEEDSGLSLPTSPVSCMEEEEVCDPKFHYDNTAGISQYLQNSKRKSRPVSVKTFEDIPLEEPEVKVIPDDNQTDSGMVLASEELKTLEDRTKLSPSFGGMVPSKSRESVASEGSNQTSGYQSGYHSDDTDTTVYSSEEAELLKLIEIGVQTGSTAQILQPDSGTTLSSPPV
# Description: Cells used were tumor cell lines naturally expressing high levels of EGFR (A431), VEGFR-2 (U251), and PDGFR-β (SH-SYSY). […] The reaction was stopped and cells were permeabilized by quickly removing the media from the cells and adding ice-cold Tris-buffered saline (TBS) containing 0.05% Triton X-100, protease inhibitor cocktail and tyrosine phosphatase inhibitor cocktail. The TBS solution was then removed and cells fixed to the plate for 30 min at 60° C. and further incubation in 70% ethanol for an additional 30 min. Cells were further exposed to block (TBS with 1% BSA) for 1 h, washed, and then a horseradish peroxidase (HRP)-conjugated phosphotyrosine (PY) antibody was added overnight.
# A431 cancer cells = test: A431 cytotoxicity (cell proliferation); format: cell-based, human; conditions: Homo sapiens, A-431
# [1] = system: cellular microtubules in A-10 cells; test: Microtubule depolymerization, indirect immunofluorescence; format: cell-based
# Description: Evaluation of microtubule inhibition was performed using previously described methods.^22 Indirect immunofluorescence was used to evaluate the effects of the compounds on cellular microtubules as described previously.^38 Briefly, A-10 cells were treated for 18 h with vehicle (DMSO) or a compound, and microtubule effects were evaluated microscopically using β-tubulin antibody. The EC50 was calculated from 3 independent experiments and expressed as the mean±SD.
# MDA-435 cells = test: Antiproliferative SRB assay; format: cell-based; conditions: MDA435, 48 h, read-out: IC50 ± SD in MDA-435 cells
# SKOV3 cells = test: Antiproliferative SRB assay; format: cell-based; conditions: Homo sapiens, SK-OV-3, 48 h, read-out: IC50 ± SD in SKOV3 cells
# EKVX = test: NCI 60 cell line panel; format: cell-based; conditions: Homo sapiens, NSCLC
# HOP-62 = test: NCI 60 cell line panel; format: cell-based; conditions: Homo sapiens, NSCLC
# HOP-92 = test: NCI 60 cell line panel; format: cell-based; conditions: Homo sapiens, NSCLC
# NCI-H226 = test: NCI 60 cell line panel; format: cell-based; conditions: Homo sapiens, NSCLC
# NCI-H23 = test: NCI 60 cell line panel; format: cell-based; conditions: Homo sapiens, NSCLC
# NCI-H460 = test: NCI 60 cell line panel; format: cell-based; conditions: Homo sapiens, NSCLC
# SF-268 = test: NCI 60 cell line panel; format: cell-based; conditions: Homo sapiens, CNS Cancer
# SF-539 = test: NCI 60 cell line panel; format: cell-based; conditions: Homo sapiens, CNS Cancer
# SNB-19 = test: NCI 60 cell line panel; format: cell-based; conditions: Homo sapiens, CNS Cancer
# SNB-75 = test: NCI 60 cell line panel; format: cell-based; conditions: Homo sapiens, CNS Cancer
# U251 = test: NCI 60 cell line panel; format: cell-based; conditions: Homo sapiens, U-251, CNS Cancer
# IGROV1 = test: NCI 60 cell line panel; format: cell-based; conditions: Homo sapiens, IGROV-1, Ovarian cancer
# OVCAR-3 = test: NCI 60 cell line panel; format: cell-based; conditions: Homo sapiens, Ovarian cancer
# OVCAR-4 = test: NCI 60 cell line panel; format: cell-based; conditions: Homo sapiens, Ovarian cancer
# OVCAR-5 = test: NCI 60 cell line panel; format: cell-based; conditions: Homo sapiens, Ovarian cancer
# OVCAR-8 = test: NCI 60 cell line panel; format: cell-based; conditions: Homo sapiens, Ovarian cancer
# NCI/ADR-RES = test: NCI 60 cell line panel; format: cell-based; conditions: Homo sapiens, Ovarian cancer
# SK-OV-3 = test: NCI 60 cell line panel; format: cell-based; conditions: Homo sapiens, Ovarian cancer
# LOX IMVI = test: NCI 60 cell line panel; format: cell-based; conditions: Homo sapiens, Melanoma
# M14 = test: NCI 60 cell line panel; format: cell-based; conditions: Homo sapiens, Melanoma
# MDA-MB-435 = test: NCI 60 cell line panel; format: cell-based; conditions: Homo sapiens, Melanoma
# SK-MEL-5 = test: NCI 60 cell line panel; format: cell-based; conditions: Homo sapiens, Melanoma
# UACC-62 = test: NCI 60 cell line panel; format: cell-based; conditions: Homo sapiens, Melanoma
# 786-0 = test: NCI 60 cell line panel; format: cell-based; conditions: Homo sapiens
# ACHN = test: NCI 60 cell line panel; format: cell-based; conditions: Homo sapiens, Renal Cancer
# CAKI-1 = test: NCI 60 cell line panel; format: cell-based; conditions: Homo sapiens, Renal Cancer
# RXF 393 = test: NCI 60 cell line panel; format: cell-based; conditions: Homo sapiens, Renal Cancer
# SN 12C = test: NCI 60 cell line panel; format: cell-based; conditions: Homo sapiens, SN12C, Renal Cancer
# TK-10 = test: NCI 60 cell line panel; format: cell-based; conditions: Homo sapiens, Renal Cancer
# UO-31 = test: NCI 60 cell line panel; format: cell-based; conditions: Homo sapiens, Renal Cancer
# COLO 205 = test: NCI 60 cell line panel; format: cell-based; conditions: Homo sapiens, Colon Cancer
# HCC-2998 = test: NCI 60 cell line panel; format: cell-based; conditions: Homo sapiens, Colon Cancer
# HCT-15 = test: NCI 60 cell line panel; format: cell-based; conditions: Homo sapiens, Colon Cancer
# HT29 = test: NCI 60 cell line panel; format: cell-based; conditions: Homo sapiens, HT-29, Colon Cancer
# KM12 = test: NCI 60 cell line panel; format: cell-based; conditions: Homo sapiens, Colon Cancer
# SW-620 = test: NCI 60 cell line panel; format: cell-based; conditions: Homo sapiens, Colon Cancer
# PC-3 = test: NCI 60 cell line panel; format: cell-based; conditions: Homo sapiens, Prostate Cancer
# DU-145 = test: NCI 60 cell line panel; format: cell-based; conditions: Homo sapiens, Prostate Cancer
# MCF7 = test: NCI 60 cell line panel; format: cell-based; conditions: Homo sapiens, Breast Cancer
# MDA-MB-231/ATCC = test: NCI 60 cell line panel; format: cell-based; conditions: Homo sapiens, Breast Cancer
# BT-549 = test: NCI 60 cell line panel; format: cell-based; conditions: Homo sapiens
# MDA-MB-468 = test: NCI 60 cell line panel; format: cell-based; conditions: Homo sapiens, Breast Cancer
# CCRF-CEM = test: NCI 60 cell line panel; format: cell-based; conditions: Homo sapiens, Leukemia
# HL-60(TB) = test: NCI 60 cell line panel; format: cell-based; conditions: Homo sapiens, Leukemia
# K-562 = test: NCI 60 cell line panel; format: cell-based; conditions: Homo sapiens, K562, Leukemia
# EGFR, sequence (P00533 25-1210): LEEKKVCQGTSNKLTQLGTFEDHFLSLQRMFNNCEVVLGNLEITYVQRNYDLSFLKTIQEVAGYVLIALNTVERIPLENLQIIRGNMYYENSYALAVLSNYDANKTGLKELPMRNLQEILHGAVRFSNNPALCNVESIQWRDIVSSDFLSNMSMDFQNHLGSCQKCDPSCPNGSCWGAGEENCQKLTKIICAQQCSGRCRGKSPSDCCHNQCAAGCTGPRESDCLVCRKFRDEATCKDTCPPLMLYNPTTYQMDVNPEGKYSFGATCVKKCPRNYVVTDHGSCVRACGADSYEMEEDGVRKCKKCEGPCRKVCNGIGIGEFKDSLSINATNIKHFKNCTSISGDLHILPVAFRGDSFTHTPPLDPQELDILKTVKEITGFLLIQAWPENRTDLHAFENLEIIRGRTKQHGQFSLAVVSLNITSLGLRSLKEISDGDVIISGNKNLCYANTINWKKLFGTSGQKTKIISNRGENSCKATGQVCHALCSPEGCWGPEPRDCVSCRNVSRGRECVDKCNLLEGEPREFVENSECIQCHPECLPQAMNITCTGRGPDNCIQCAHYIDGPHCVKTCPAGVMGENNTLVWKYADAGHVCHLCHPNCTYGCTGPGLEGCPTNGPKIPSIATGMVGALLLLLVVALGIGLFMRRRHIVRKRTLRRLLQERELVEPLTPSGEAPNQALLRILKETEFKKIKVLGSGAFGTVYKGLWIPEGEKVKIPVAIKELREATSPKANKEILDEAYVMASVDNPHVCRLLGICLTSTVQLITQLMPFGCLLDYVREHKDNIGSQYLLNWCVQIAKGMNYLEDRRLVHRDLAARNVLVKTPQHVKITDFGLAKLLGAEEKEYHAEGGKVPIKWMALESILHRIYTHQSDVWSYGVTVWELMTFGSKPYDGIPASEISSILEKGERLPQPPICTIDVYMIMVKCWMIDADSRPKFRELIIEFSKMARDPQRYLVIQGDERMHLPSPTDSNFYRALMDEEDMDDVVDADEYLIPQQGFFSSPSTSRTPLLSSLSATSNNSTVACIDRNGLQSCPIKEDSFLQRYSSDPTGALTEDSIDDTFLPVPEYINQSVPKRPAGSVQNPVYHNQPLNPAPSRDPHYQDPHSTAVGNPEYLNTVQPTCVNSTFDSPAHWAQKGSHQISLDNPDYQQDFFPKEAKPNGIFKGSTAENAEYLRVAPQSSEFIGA
compound,measurement,setting,value
"COc1ccc2c(c1)CCCN2c1nc(C)nc2oc(C)cc12 [Compound 10, 4-(6-methoxy-3,4-dihydroquinolin-1(2H)-yl)-2,6-dimethylfuro[2,3-d]pyrimidine]",IC50,EGFR,3.4 ± 0.8 nM
same,IC50,VEGFR-2,33.2 ± 5 nM
same,IC50,A431 cancer cells,18 ± 2.9 nM
same,EC50,"[1]; A-10 cells, 18 h, read-out: EC50 for MT depolymerization in A-10 cells",21 nM
same,effect on cellular microtubules,[1]; in words,dose-dependent loss of cellular microtubules
same,IC50,MDA-435 cells,9.8 ± 0.9 nM
same,IC50,SKOV3 cells,12.9 ± 1.2 nM
same,GI50,EKVX,< 10 nM
same,GI50,HOP-62,< 10 nM
same,GI50,HOP-92,58.6 nM
same,GI50,NCI-H226,13 nM
same,GI50,NCI-H23,< 10 nM
same,GI50,NCI-H460,< 10 nM
same,GI50,SF-268,16.8 nM
same,GI50,SF-539,< 10 nM
same,GI50,SNB-19,< 10 nM
same,GI50,SNB-75,< 10 nM
same,GI50,U251,< 10 nM
same,GI50,IGROV1,< 10 nM
same,GI50,OVCAR-3,< 10 nM
same,GI50,OVCAR-4,51 nM
same,GI50,OVCAR-5,43 nM
same,GI50,OVCAR-8,< 10 nM
same,GI50,NCI/ADR-RES,< 10 nM
same,GI50,SK-OV-3,< 10 nM
same,GI50,LOX IMVI,< 10 nM
same,GI50,M14,< 10 nM
same,GI50,MDA-MB-435,< 10 nM
same,GI50,SK-MEL-5,< 10 nM
same,GI50,UACC-62,< 10 nM
same,GI50,786-0,< 10 nM
same,GI50,ACHN,< 10 nM
same,GI50,CAKI-1,< 10 nM
same,GI50,RXF 393,< 10 nM
same,GI50,SN 12C,< 10 nM
same,GI50,TK-10,< 10 nM
same,GI50,UO-31,< 10 nM
same,GI50,COLO 205,< 10 nM
same,GI50,HCC-2998,12 nM
same,GI50,HCT-15,< 10 nM
same,GI50,HT29,< 10 nM
same,GI50,KM12,< 10 nM
same,GI50,SW-620,< 10 nM
same,GI50,PC-3,< 10 nM
same,GI50,DU-145,< 10 nM
same,GI50,MCF7,< 10 nM
same,GI50,MDA-MB-231/ATCC,11.4 nM
same,GI50,BT-549,< 10 nM
same,GI50,MDA-MB-468,< 10 nM
same,GI50,CCRF-CEM,< 10 nM
same,GI50,HL-60(TB),< 10 nM
same,GI50,K-562,< 10 nM
